Results as given in PubChem BioAssay (NCI).
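96-well plates; 48 h exposure; 5 concentrations. Endpoints by linear interpolation between flanking doses. Not reached: highest tested concentration assigned. Abbreviation: GI50, concentration required for 50% inhibition of growth. TGI: concentration producing complete growth inhibition.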

Experiments:
Assay in all cases: inhibition of tumour cell growth, NCI panel, 48 h
LOX IMVI melanoma = tested on: LOX IMVI melanoma
786-0 renal = tested on: 786-0 renal
MDA-MB-435 = tested on: MDA-MB-435
MCF7 breast = tested on: MCF7 breast
SF-539 CNS = tested on: SF-539 CNS
HOP-62 NSCLC = tested on: HOP-62 NSCLC
RPMI-8226 leukemia = tested on: RPMI-8226 leukemia
OVCAR-8 ovarian = tested on: OVCAR-8 ovarian
SK-MEL-2 melanoma = tested on: SK-MEL-2 melanoma
K-562 leukemia = tested on: K-562 leukemia
MDA-N = tested on: MDA-N

Compound | TGI (LOX IMVI melanoma) [µM] | TGI (786-0 renal) [µM] | TGI (MDA-MB-435) [µM] | TGI (MCF7 breast) [µM] | TGI (SF-539 CNS) [µM] | TGI (HOP-62 NSCLC) [µM] | TGI (RPMI-8226 leukemia) [µM] | TGI (OVCAR-8 ovarian) [µM] | TGI (SK-MEL-2 melanoma) [µM] | TGI (K-562 leukemia) [µM] | TGI (MDA-N) [µM] | GI50 (MDA-MB-435) [µM] | GI50 (SF-539 CNS) [µM] | GI50 (HOP-62 NSCLC) [µM] | GI50 (RPMI-8226 leukemia) [µM] | GI50 (K-562 leukemia) [µM]
COc1ccc(N=C(C)C(C)=Nc2ccc(OC)cc2)cc1 | > 100 | > 100 | > 100 | > 100 | > 100 | > 100 | > 100 | > 100 | > 100 | > 100 | – | – | – | – | – | –
COc1cc(/C=C2\N=C(c3ccccc3)N(c3cc4cc(Sc5ccccc5)ccc4[nH]3)C2=O)ccc1O | > 50 | > 50 | 5.56 | > 50 | > 50 | – | – | > 50 | – | > 50 | – | – | – | – | – | –
Cc1cc2ccccc2n2c1nc1ccc(O)cc12 | – | > 10 | > 10 | > 10 | > 10 | > 10 | > 10 | > 10 | > 10 | > 10 | – | – | – | – | – | –
CC1=NN(c2ccccc2)C(=O)/C1=C\c1c(C)[nH]n(-c2ccccc2)c1=O | – | > 100 | > 100 | > 100 | > 100 | > 100 | 83.3 | > 100 | > 100 | > 100 | > 100 | – | – | – | – | –
CNCC(SC)c1ccc(O)c(O)c1 (centres undefined) | 84.9 | 39.1 | > 100 | 87.4 | – | > 100 | 58.6 | 41.4 | > 100 | 59 | 38.1 | – | – | – | – | –
CC1(C)Cc2ccccc2C(C)(Cl)C(=O)N1 (centres undefined) | – | > 10 | > 10 | > 10 | > 10 | > 10 | > 10 | > 10 | – | > 10 | > 10 | – | – | – | – | –
Cc1noc(-c2ccc(C(=O)O)[nH]2)c1Br | – | 91.9 | > 100 | > 100 | – | 77.3 | > 100 | 32.2 | > 100 | > 100 | > 100 | – | – | – | – | –
C/C(N=NS(=O)(=O)c1c(C)cc(C)cc1C)=C1\C=CC=CN1O | – | > 100 | – | – | > 100 | > 100 | > 100 | > 100 | – | > 100 | – | – | – | – | – | –
O=C(CCC(NC(=O)OCc1ccccc1)C(=O)OCc1ccccc1)Nc1cccc(OCc2ccccc2)c1 (centres undefined) | 38.3 | 33.2 | 43.1 | 41.3 | 35 | 60.1 | – | 78.6 | – | 52.2 | > 100 | – | – | – | – | –
COc1cccc(C2C(C#N)=C(N)Oc3cc(OCCCCCC[P+](c4ccccc4)(c4ccccc4)c4ccccc4)ccc32)c1 (centres undefined) | – | – | 1.31 | – | 2.12 | 4.16 | 0.659 | – | – | > 23.7 | – | 0.357 | 0.745 | 1.62 | 0.194 | 0.334
COc1ccc(NCn2nc(CCCCCCCCc3nn(CNc4ccc(OC)cc4)c(=S)o3)oc2=S)cc1 | – | > 100 | > 100 | > 100 | – | > 100 | > 100 | – | > 100 | > 100 | > 100 | – | – | – | – | –
COC(=O)c1c(CC(=O)OC(C)C)cc2n(c1=O)Cc1c-2nc2ccccc2c1OC | > 100 | > 100 | – | – | – | > 100 | > 100 | > 100 | > 100 | > 100 | – | – | – | – | – | –
